From patent publication US7488481B2, “Polypeptides derived from anti-HIV-1 gp120 antibodies that abrogate gp120 binding to CCR5” (priority 2003, dated 2009)
Ends that are not written are not given here. * marks the point of attachment. SO3H = O=S(=O)(O)*

Assays:
ADA gp120 = test: Peptide competition of scFv association with ADA gp120 and CD4-Ig; type: binding, HIV-1; conditions: scFv of sulfated antibodies
Description: Radiolabeled single-chain antibody constructs (scFv) were incubated with radiolabeled gp120 of the ADA isolate in the presence and absence of soluble CD4. […] Ratios of gp120 precipitated in the presence and absence of soluble CD4 were calculated by densitometry. Radiolabeled scFv was incubated with ADA gp120 and CD4-Ig in the presence of peptide buffer (buffer only), an unsulfated peptide derived from the first 22 residues of the CCR5 amino-terminus (c22), a peptide derived from the first 22 residues of the CCR5 amino-terminus in which tyrosines 10 and 14 are sulfated (s22), or a peptide derived from residues 7-28 of the C5a receptor sulfated at the tyrosines corresponding to residues 11 and 14 of the C5a receptor (c5aR-s22).

[1] = test system: association of gp120 with CCR5; conditions: peptides previously characterized; cited from earlier work
[2] = test system: interaction between gp120 and CCR5; test: Effectiveness of peptides based upon E51

| Substance | effect of peptide on association of scFv with ADA gp120 (ADA gp120) | effect of peptide on the association of gp120 with CCR5 [1] | effectiveness compared with the longer sequence SEQ ID NO:4 [2] |
| --- | --- | --- | --- |
| c22: unsulfated peptide derived from the first 22 residues of the CCR5 amino-terminus (MDYQVSSPIYDINYYTSEPCQK; UniProt P51681 1-22, looked up, fragment) | no significant effect | – | – |
| s22: peptide from the first 22 residues of the CCR5 amino-terminus in which tyrosines 10 and 14 are sulfated (MDYQVSSPIY(SO3H)DINY(SO3H)YTSEPCQK) | inhibited | – | – |
| c5aR-s22: peptide from residues 7-28 of the C5a receptor sulfated at tyrosines 11 and 14 | very modest inhibition | did not have a noticeable effect | – |
| GDYADYDGGYYYDMD (listed as Homo sapiens) [SEQ ID NO:3, shorter peptide based upon E51] | – | – | just as effective as the longer sequence |
